The subject of series [1] is psoriasis. The settings on record: human, in vivo.
Excerpt: (§1) Psoriasis can be divided into mild, moderate, and severe according to the severity. The severity can be determined by PASI (Psoriasis Area Severity Index) scores. PASI is a set of scoring indicators that are widely used internationally to reflect the severity of psoriasis. In the scoring system, four parts, i.e., the head, upper limbs, torso, and lower limbs, are used for comprehensive scoring according to indicators such as erythema, desquamation, infiltration, and area of involvement. The higher the score, the more severe the condition of psoriasis. The specific scoring rules are well known in the field of medical diagnosis.
(§2) Ineffective: The PASI score of psoriasis after treatment is more than 50% of the score before treatment, namely, PASI after treatment÷PASI before treatment×100%>50%.
Series [2] deals with psoriasis. Kind of series: Case studies of patients with drug-resistant psoriasis (PASI score, skin state, recurrence, tolerability).
Excerpt: as §1, §2
[3] abbreviates: Example 4, person, tretinoin cream, calcipotriol ointment and other treatments.
Where [4] appears, read: Example 4, after tretinoin cream, calcipotriol ointment and other treatments.
[5] abbreviates: Example 6, person, tretinoin cream, calcipotriol ointment, methotrexate tablets and other treatments in the past.
[6] abbreviates: Example 6, after tretinoin cream, calcipotriol ointment, methotrexate tablets and other treatments, severe psoriasis.
Where [7] appears, read: Example 7, after secukinumab treatment.

Consider `C=C1/C(=C\C=C2/CCC[C@]3(C)[C@@H]([C@H](C)/C=C/[C@@H](O)C4CC4)CC[C@@H]23)C[C@@H](O)C[C@@H]1O` [calcipotriol ointment, calcipotriol], for which, in series [1], the skin irritation entry is given as “severe”. For the same compound, the PASI score in series [2] (Example 3, person, after 1 month of use) came to 5.3; in series [2] (setting [6]), 13.8. For the same compound, the “PASI improvement vs before treatment” value in series [2] (Example 3, after 1 month of use) worked out at 10%. Moreover, the “effect of treatment” value was “healed” in series [2] (setting [3]) and “not alleviated” in series [2] (setting [5]). The “relapse” value in series [2] (setting [4]) is “relapsed three months after the drug withdrawal”.
On to `CN(Cc1cnc2nc(N)nc(N)c2n1)c1ccc(C(=O)N[C@@H](CCC(=O)O)C(=O)O)cc1` [methotrexate tablets, methotrexate], for which the “relapse” value in series [2] (Example 3, after relief, within two years follow-up) was “relapsed twice”. The “effect of treatment” value is listed as “the psoriasis was relieved” in series [2] (Example 3, taken after lysozyme buccal tablets withdrawal, self-reported); “the condition was not alleviated” in series [2] (Example 4, oral treatment after relapse); “not alleviated” in series [2] (setting [5]). In addition, the PASI score in series [2] (Example 4, after oral methotrexate treatment) is recorded as 9.3; in series [2] (setting [6]), 13.8.
As to `CCOC(=O)c1ccc(C#Cc2ccc3c(c2)C(C)(C)CCS3)nc1` [tazarotene cream, tazarotene], the “effect of treatment” value in series [2] (Example 5, person, two months of treatment) is recorded as “ineffective”.
On to `CC1=C(/C=C/C(C)=C/C=C/C(C)=C/C(=O)O)C(C)(C)CCC1` [tretinoin cream, tretinoin], for which the “effect of treatment” value in series [2] (setting [3]) was “healed”; in series [2] (setting [5]), “not alleviated”. Besides, the “relapse” value in series [2] (setting [4]) was “relapsed three months after the drug withdrawal”. The PASI score in series [2] (setting [6]) came to 13.8.
For Adalimumab, the PASI decrease in series [2] (Example 6, after one course of treatment, PASI before 13.8) is recorded as 32%.
Consider secukinumab: IL-17 inhibitor, for which the “tolerability” value in series [1] is reported as “intolerance occurred”. In series [2] (setting [7]), this compound had a PASI decrease of 10% and a PASI score of 8.7.

The record behind these values is patent US20220257727A1, “PHARMACEUTICAL COMPOSITION CONTAINING LYSOZYME AND USE THEREOF” (GUANGZHOU CENTURY CLINICAL RESEARCH., LTD., priority 2019, published 2022).
